Publication PMC11053489 (Viruses, 2024)
Where two headings read alike, the source gives them in different places.

What was measured:
[1] = tested on: SARS-CoV-2 (hCoV-19/USA-WA1/2020) in Calu-3 cells; assay: microbe, parasite or virus in culture; type: cell-based; settings: for EC50: read-out: Calu-3 SARS-CoV-2 EC50; for EC90: read-out: Calu-3 SARS-CoV-2 EC90
[2] = tested on: SARS-CoV-2 (hCoV-19/USA-WA1/2020) in Vero CCL-81 cells; assay: microbe, parasite or virus in culture; type: cell-based; settings: for EC50: read-out: Vero CCL-81 SARS-CoV-2 EC50; for EC90: read-out: Vero CCL-81 SARS-CoV-2 EC90
[3] = tested on: SARS-CoV-2 (hCoV-19/USA-WA1/2020) in Caco-2 cells
in vitro [4] = settings: human, Caco-2
[5] = tested on: SARS-CoV-2 (hCoV-19/USA-WA1/2020) in Caco-2 cells; assay: microbe, parasite or virus in culture; settings: Severe acute respiratory syndrome coronavirus 2, Caco-2, 72 h; for EC50: read-out: Caco-2 SARS-CoV-2 EC50; for EC90: read-out: Caco-2 SARS-CoV-2 EC90
[6] = Peak plasma concentration
in vitro [7] = settings: African green monkey
in vitro [8] = settings: human
in vitro [9] = settings: human; remark: listed apart in the source
in vitro [10] = settings: human; remark: listed apart in the source
in vitro [11] = settings: human; remark: listed apart in the source
[12] = cited from earlier work
[13] = tested on: primary human peripheral blood mononuclear cells (PBM)
Huh-7 cells [14] = tested on: Huh-7 cells
CCRF-CEM cells [15] = tested on: CCRF-CEM cells
[16] = following an IV infusion of remdesivir over 2 h, in vivo; cited from earlier work
[17] = human, in vivo
[18] = primary hepatocytes; cited from earlier work
[19] = human astrocytes and hBTEC; cited from earlier work
[20] = cited from earlier work; remark: listed apart in the source
[21] = MTS cytotoxicity assay, Huh-7 cells; settings: human
[22] = MTS cytotoxicity assay, Caco-2 cells; settings: human
[23] = MTS cytotoxicity assay, PBM cells; settings: human
[24] = MTS cytotoxicity assay, CEM cells; settings: human
[25] = MTS cytotoxicity assay, Vero CCL-81 cells; settings: African green monkey
[26] = MTS cytotoxicity assay, Calu-3 cells; settings: human
[27] = tested on: COVID-19 / SARS-CoV-2 infection; settings: cited from earlier work
[28] = African Green monkeys, oral; cited from earlier work
Huh-7 cells [29] = assay: MTS cytotoxicity assay, Huh-7 cells; settings: read-out: Huh7 CC50; 4 days
[30] = tested on: primary human peripheral blood mononuclear cells (PBM); assay: MTS cytotoxicity assay, PBM cells; settings: read-out: PBM CC50; 5 days
CCRF-CEM cells [31] = assay: MTS cytotoxicity assay, CEM cells; settings: read-out: CEM CC50; 4 days
[32] = Severe acute respiratory syndrome coronavirus 2, Calu-3, 72 h
[33] = Severe acute respiratory syndrome coronavirus 2, 48 h
[34] = Table 1, ref column Refs of Table 1
[35] = Severe acute respiratory syndrome coronavirus 2, Calu-3, MOI 0.01, 72 h, 2% FBS
[36] = Severe acute respiratory syndrome coronavirus 2, Table 1 drugs, MOI 0.1, 48 h, 2% FBS

## CC(C)(C)[C@H](NC(=O)C(F)(F)F)C(=O)N1C[C@H]2[C@@H]([C@H]1C(=O)N[C@H](C#N)C[C@@H]1CCNC1=O)C2(C)C [Nirmatrelvir]
[1]; [32]
  EC50: 1.8 µM
  EC90: 8.8 µM
[2]; [33]
  EC50: 3.7 µM
  EC90: 5.6 µM
[3]; Caco-2
  Caco-2 Unbound Cmax/EC50: 6.8
In vitro [4]
  CC50: > 100 µM
[5]
  EC50: 0.1 µM
  EC90: 0.3 µM
[6]; Table 1, Cmax × Fun
  Cmax (μM) {unbound}: 2.13 µM
In vitro [7]
  CC50: > 100 µM
In vitro [8]; CEM CC50, 4 days
  CC50: > 100 µM
In vitro [9]
  CC50: > 100 µM
In vitro [10]
  CC50: > 100 µM
In vitro [11]
  CC50: > 100 µM
[12]; [34]
  Fun (unbound fraction of drug in plasma): 0.31

## COC(=O)N[C@H](C(=O)N1CCC[C@H]1c1nc(-c2ccc(-c3ccc(-c4c[nH]c([C@@H]5CCCN5C(=O)[C@@H](NC(=O)OC)C(C)C)n4)cc3)cc2)c[nH]1)C(C)C [Daclatasvir]
[1]; [35]
  EC50: > 100 µM
[2]; [36]
  EC50: 0.7 µM
  EC90: 3.5 µM
[3]; Caco-2
  Caco-2 Unbound Cmax/EC50: 0.0005
[13]; human
  PBM CC50 {Unbound}: 36.4 {29.2} μM
In vitro [4]
  CC50: 67.6 µM
[5]
  EC50: 44.7 µM
  EC90: 89.4 µM
Huh-7 cells [14]; human
  Huh7 CC50 {Unbound}: 53.6 {48.3} μM
[6]; Table 1, Cmax × Fun
  Cmax (μM) {unbound}: 0.02 µM
In vitro [7]
  CC50: 50.6 µM
CCRF-CEM cells [15]; human
  CEM CC50 {Unbound}: 26.2 {23.6} μM
Vero CCL-81 cells; African green monkey
  Vero CC50 {Unbound}: 50.6 {45.6} μM
[12]; [34]
  Fun (unbound fraction of drug in plasma): 0.01

## N#C[C@@]1(c2ccc3c(N)ncnn23)O[C@H](COP(=O)(O)OP(=O)(O)OP(=O)(O)O)[C@@H](O)[C@H]1O [GS-441524-TP]
[16]
  t1/2 of GS-441524-TP in human blood mononuclear cells: 36 to 43 h

## O=c1c2ccccc2[se]n1-c1ccccc1 [Ebselen]
[1]; [32]
  EC50: 6.5 µM
  EC90: > 10 µM
[2]; [33]
  EC50: 1.1 µM
  EC90: 2.7 µM
[13]; human, 5 days
  PBM CC50 {Unbound}: 75.5 µM
In vitro [4]
  CC50 at 3 days: > 100 µM
[5]
  EC50: > 100 µM
Huh-7 cells [14]; human, 4 days
  Huh7 CC50 {Unbound}: 76.3 µM
In vitro [7]
  CC50 at 3 days: 22.4 µM
[17]
  Cmax (μM) {unbound}: 0.013 µM
In vitro [10]
  CC50 at 3 days: > 100 µM
In vitro [11]
  CC50 at 5 days: 93.2 µM
CCRF-CEM cells [15]; human, 4 days
  CEM CC50 {Unbound}: 42.3 µM
Vero CCL-81 cells; African green monkey, 3 days
  Vero CC50 {Unbound}: 20.3 µM
[12]; plasma
  Fun (unbound fraction of drug in plasma): 0.05

## O=c1nc(NO)ccn1[C@@H]1O[C@H](COP(=O)(O)OP(=O)(O)OP(=O)(O)O)[C@@H](O)[C@H]1O [NTP of NHC]
[18]
  cellular t1/2: 0.4 to 1.1 h
[19]
  cellular t1/2: 4 to 5 h

## O=c1nc(NO)ccn1[C@@H]1O[C@H](CO)[C@@H](O)[C@H]1O [NHC, β-D-N4-hydroxycytidine]
Calu-3 cells
  CC50: > 100 µM
[13]
  CC50: 59.8 µM
Huh-7 cells [14]
  CC50: 59.1 µM
[20]; in vivo, iv
  plasma t1/2: 3.3 h
Caco-2 cells
  CC50: > 100 µM
Vero CCL-81 cells
  CC50: 18.8 µM

## COCCCC/C(=N\OCCN)c1ccc(C(F)(F)F)cc1 [Fluvoxamine (maleate)]
[1]; [35]
  EC50: > 100 µM
[2]; [36]
  EC50: > 100 µM
[2]; Vero CCL-81 cells, up to 100 μM
  anti-SARS-CoV-2 activity (in words), concentrations up to 100 μM: inactive
[21]
  CC50 at 4 days: 36.7 µM
[22]
  CC50 at 3 days: > 100 µM
[3]; Cmax × Fun/EC50
  Caco-2 Unbound Cmax/EC50: 0.0017
[23]
  CC50 at 5 days: 35.4 µM
[5]
  EC50: 17.9 µM
  EC90: 47.5 µM
[24]; CEM CC50, 4 days
  CC50 at 4 days: 20 µM
[6]; human, in vivo
  Cmax (μM) {unbound}: 0.003 µM
[25]
  CC50 at 3 days: 35.5 µM
[26]
  CC50 at 3 days: > 100 µM
[12]; [34]
  Fun (unbound fraction of drug in plasma): 0.23

## CCC(CC)COC(=O)[C@H](C)N[P@](=O)(OC[C@H]1O[C@@](C#N)(c2ccc3c(N)ncnn23)[C@H](O)[C@@H]1O)Oc1ccccc1 [Remdesivir]
[1]; [35]
  EC50: 0.2 µM
  EC90: 0.7 µM
[2]; [36]
  EC50: 3.2 µM
  EC90: 4.7 µM
[3]; Caco-2
  Caco-2 Unbound Cmax/EC50: 22
[27]; IV remdesivir, hospitalized patients with COVID-19, ACTT-1 trial
  shortening of hospitalization duration: 5 days
[27]; IV, 3-day course, high-risk non-hospitalized patients, PINETREE trial
  reduction in hospitalizations: 87%
In vitro [4]
  CC50: > 100 µM
[5]
  EC50: 0.02 µM
  EC90: 0.1 µM
[6]; Table 1, Cmax × Fun
  Cmax (μM) {unbound}: 0.44 µM
In vitro [7]
  CC50: > 100 µM
[28]
  fraction of orally administered drug entering the systemic circulation intact: < 1%
[20]; remdesivir following IV infusion
  plasma t1/2: ~ 1 h
[12]; [34]
  Fun (unbound fraction of drug in plasma): 0.12

## Cc1cccc(Nc2ccccc2C(=O)O)c1C [Mefenamic acid]
[1]; [35]
  EC50: > 100 µM
[2]; [36]
  EC50: 87.6 µM
  EC90: > 100 µM
[21]
  CC50 at 4 days: > 100 µM
[22]
  CC50 at 3 days: > 100 µM
[27]; with standard medical care versus placebo plus standard care, 38 ambulatory individuals
  higher probability of achieving patient-acceptable symptoms on day 8: about 16 fold
[23]
  CC50 at 5 days: > 100 µM
[5]
  EC50: > 100 µM
[24]
  CC50 at 4 days: > 100 µM
[6]; human, in vivo
  Cmax (μM) {unbound}: 1.58 µM
[25]
  CC50 at 3 days: > 100 µM
[26]
  CC50 at 3 days: > 100 µM
[12]; [34]
  Fun (unbound fraction of drug in plasma): 0.1

## CC(c1cc2ccccc2s1)N(O)C(N)=O (stereo not shown) [Zileuton]
[1]; [35]
  EC50: > 100 µM
[2]; [36]
  EC50: 6.7 µM
  EC90: 35.8 µM
[3]; Caco-2
  Caco-2 Unbound Cmax/EC50: 0.003
In vitro [4]
  CC50 at 3 days: > 100 µM
[5]
  EC50: > 100 µM
In vitro [7]
  CC50 at 3 days: > 100 µM
In vitro [8]
  CC50 at 4 days: > 100 µM
In vitro [9]
  CC50 at 4 days: > 100 µM
[17]
  Cmax (μM) {unbound}: 0.16 µM
In vitro [10]
  CC50 at 3 days: 46.7 µM
In vitro [11]
  CC50 at 5 days: > 100 µM
[12]; [34]
  Fun (unbound fraction of drug in plasma): 0.07

## Ivermectin
[1]
  EC50: 6.2 µM
  EC90: 9.3 µM
[2]
  EC50: 2.1 µM
  EC90: 4.5 µM
Calu-3 cells
  CC50: 17.5 µM
Huh-7 cells [29]
  CC50: 5.6 µM
[3]; Caco-2
  Caco-2 Unbound Cmax/EC50: 0.005
  EC90: 8.9 µM
[3]; read-out: Caco-2 SARS-CoV-2 EC50
  EC50: 4.5 µM
[30]
  CC50: 29.2 µM
[13]
  PBM CC50 {Unbound}: 29.2 {23.8} μM
Huh-7 cells [14]
  Huh7 CC50 {Unbound}: 5.6 {5.1} μM
CCRF-CEM cells [31]
  CC50: 12 µM
Caco-2 cells
  CC50: 5.8 µM
CCRF-CEM cells [15]
  CEM CC50 {Unbound}: 12 {9.5} μM
Vero CCL-81 cells
  CC50: 35.2 µM
  Vero CC50 {Unbound}: 35.2 {31.9} μM
[12]; [34]
  Fun (unbound fraction of drug in plasma): 0.07

## Iota-Carrageenan
[1]
  EC90: 1.9 µM
[2]
  EC90: 1.6 µM
Calu-3 cells
  CC50: > 100 µM
Huh-7 cells [29]
  CC50: > 100 µM
[3]; Caco-2
  EC90: 93.3 µM
[27]; topical nasal spray, 300 hospital personnel
  absolute risk reduction: 4%
[30]
  CC50: > 100 µM
CCRF-CEM cells [31]
  CC50: 95.9 µM
Caco-2 cells
  CC50: > 100 µM

## NC(=O)c1nc(F)c[nH]c1=O [Favipiravir]
[1]; [35]
  EC50: > 300 µM
[2]; [36]
  EC50: 90.6 µM
  EC90: 234 µM
[3]; Caco-2
  Caco-2 Unbound Cmax/EC50: 0.74
In vitro [4]
  CC50 at 3 days: > 300 µM
[5]
  EC50: 256 µM
  EC90: > 300 µM
In vitro [7]
  CC50 at 3 days: > 100 µM
In vitro [8]
  CC50 at 4 days: > 100 µM
In vitro [9]
  CC50 at 4 days: > 100 µM
[17]
  Cmax (μM) {unbound}: 193 µM
In vitro [10]
  CC50 at 3 days: > 300 µM
In vitro [11]
  CC50 at 5 days: > 100 µM
